Key:
[1] = test system: Desulfovibrio longus ATCC 51456; assay: Biocidal efficacy and synergy of glutaraldehyde and Surf A-C against anaerobic sulfate-reducing bacteria (2 h kill, serial dilution enumeration); assay type: cell-based; settings: Glut part, 35° C.
Procedure: (§1) Surfactants and biocides were evaluated for synergy by determining the synergy index (S.I.) of the combination. Synergy index was calculated based the concentration required to achieve a certain level of bacterial kill when the two antimicrobial compounds (A and B) alone and in combinations. The tests organisms were anaerobic sulfate-reducing bacteria (Desulfovibrio longus ATCC #51456), facultative bacteria Pseudomonas aeruginosa ATCC #10145 and Staphylococcus aureus ATCC #6538, R^2O(CH2CH(CH3)O)3(CH2CH2O)7H Surf. A R^2O(CH2CH(CH3)O)3(CH2CH2O)5H Surf. B R^2O(CH2CH(CH3)O)3(CH2CH2O)13H Surf. C where R^2 is a mixture of C8-C14 linear alkyl groups.
Inside an anaerobic chamber (Bactron anaerobic chamber), a deoxygenated sterile salt solution (3.1183 g of NaCl, 1.3082 mg of NaHCO3, 47.70 mg of KCl, 72.00 mg of CaCl2, 54.49 mg of MgSO4, 172.28 mg of Na2SO4, 43.92 mg of Na2CO3 in 1 L water) was inoculated with Desulfovibrio longus ATCC 51456 to a final bacterial concentration of 10^6 to 10^7 CFU/mL. Aliquots of this cell suspension were then treated with glutaraldehyde, and each of Surf A-C at selected active concentrations. After incubation at 35° C. for 2 hours, viable bacteria in the aliquots were enumerated using serial dilution method.
(§2) SI is calculated as follows: Ca/CA+Cb/CB=Synergy Index (“SI”)
(§3) Wherein: • Ca=Concentration of biocide A required to achieve a certain level of bacterial kill when used in combination with B • CA=Concentration of biocide A required to achieve a certain level of bacterial kill when used alone • Cb=Concentration of biocide B required to achieve a certain level of bacterial kill when used in combination with A • CB=Concentration of biocide B required to achieve a certain level of bacterial kill when used alone When the sum of Ca/CA and Cb/CB is greater than one, antagonism is indicated.

[2] = test system: Pseudomonas aeruginosa ATCC 10145 and Staphylococcus aureus ATCC 6538; assay: Biocidal efficacy and synergy of glutaraldehyde and Surf. B against aerobic (facultative) bacteria (2 h kill, serial dilution enumeration); assay type: cell-based; settings: Glut part, alone (1:0) or in combination with Surf. B, 37° C., approximately 10^7 CFU/mL, 0.85% NaCl
Procedure: as §1, §2, §3
Sterile 0.85% NaCl solution was inoculated with approximately 10^7 CFU/mL of Pseudomonas aeruginosa ATCC 10145 and Staphylococcus aureus ATCC 6538. […]

O=CCCCC=O [Glut, glutaraldehyde, (1,5-pentanedial) CAS No. 111-30-8]
Concentration (active ppm) for complete bacterial kill in 2 hours, Glut ([1]; alone (1:0) or in combination with Surf C): 29.6 active ppm | Concentration (active ppm) for 99.99% bacterial kill in 2 hours, Glut ([1]; alone (1:0) or in combination with Surf. A, 10^6 to 10^7 CFU/mL): 13.2 active ppm | Concentration (active ppm) for more than 99.999% bacterial kill in 2 hours, Glut ([1]; alone (1:0) or in combination with Surf. B): 29.6 active ppm | Concentration (active ppm) for more than 99.999% bacterial kill in 2 hours, Glut [2]: 29.6 active ppm
